According to paper PMC12018053 (Biochemistry and Biophysics Reports, 2025):

What was measured:
5-HT1A = target: T1, 5-HT1A (Homo sapiens, UniProt P08908); experiment: NIMH PDSP primary binding screen, 5-HT1A; settings: read-out: Inhibition (%) 5-HT1A
T1 sequence (P08908 1-422): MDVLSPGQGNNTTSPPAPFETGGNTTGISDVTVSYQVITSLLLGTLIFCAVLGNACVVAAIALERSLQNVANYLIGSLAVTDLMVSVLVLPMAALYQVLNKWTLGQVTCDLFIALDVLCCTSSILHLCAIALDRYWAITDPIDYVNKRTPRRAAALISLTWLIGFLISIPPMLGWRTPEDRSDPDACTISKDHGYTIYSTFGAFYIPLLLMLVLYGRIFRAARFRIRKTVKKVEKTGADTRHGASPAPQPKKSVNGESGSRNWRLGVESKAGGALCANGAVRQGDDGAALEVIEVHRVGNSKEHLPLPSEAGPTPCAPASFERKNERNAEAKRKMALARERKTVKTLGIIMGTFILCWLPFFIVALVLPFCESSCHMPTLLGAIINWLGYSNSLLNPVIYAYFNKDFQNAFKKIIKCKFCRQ

5-HT3 = target: T2, 5-HT3 (Homo sapiens, UniProt P46098); experiment: NIMH PDSP primary binding screen, 5-HT3; settings: read-out: Inhibition (%) 5-HT3
T2 sequence (P46098 24-478): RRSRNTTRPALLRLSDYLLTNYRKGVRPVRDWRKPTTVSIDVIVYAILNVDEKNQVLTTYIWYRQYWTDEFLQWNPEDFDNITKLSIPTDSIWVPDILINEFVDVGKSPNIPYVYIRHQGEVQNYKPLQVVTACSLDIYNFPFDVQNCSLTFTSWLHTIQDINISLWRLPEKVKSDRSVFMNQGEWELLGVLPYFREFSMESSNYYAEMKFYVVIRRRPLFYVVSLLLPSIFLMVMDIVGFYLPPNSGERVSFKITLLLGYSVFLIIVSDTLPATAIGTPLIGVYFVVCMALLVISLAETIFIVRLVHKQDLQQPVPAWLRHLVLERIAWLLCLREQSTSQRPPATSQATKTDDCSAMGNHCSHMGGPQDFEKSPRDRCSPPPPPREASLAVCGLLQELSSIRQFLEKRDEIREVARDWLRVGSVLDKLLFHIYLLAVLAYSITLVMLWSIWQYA

5-HT2A = 5-HT2A (Homo sapiens, UniProt P28223); experiment: NIMH PDSP primary binding screen, 5-HT2A; settings: read-out: Inhibition (%) 5-HT2A
Sequence of 5-HT2A (P28223 whole entry, species assumed): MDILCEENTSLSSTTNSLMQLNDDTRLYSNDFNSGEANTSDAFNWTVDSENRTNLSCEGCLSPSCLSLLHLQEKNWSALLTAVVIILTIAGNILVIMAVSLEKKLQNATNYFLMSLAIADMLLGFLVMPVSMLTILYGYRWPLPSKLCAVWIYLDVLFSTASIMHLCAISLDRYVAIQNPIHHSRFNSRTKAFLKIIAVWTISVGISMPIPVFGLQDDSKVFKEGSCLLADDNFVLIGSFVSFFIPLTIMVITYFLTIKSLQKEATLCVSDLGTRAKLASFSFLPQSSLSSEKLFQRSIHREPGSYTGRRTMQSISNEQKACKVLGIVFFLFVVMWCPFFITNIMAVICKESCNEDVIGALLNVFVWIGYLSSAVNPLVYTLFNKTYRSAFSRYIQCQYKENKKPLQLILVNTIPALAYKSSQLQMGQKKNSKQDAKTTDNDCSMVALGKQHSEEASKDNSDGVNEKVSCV

Kappa opioid (KOR) = Kappa opioid (KOR) (Homo sapiens, UniProt P41145); experiment: NIMH PDSP primary binding screen, KOR; settings: read-out: Inhibition (%) Kappa opioid (KOR)
Sequence of Kappa opioid (KOR) (P41145 whole entry): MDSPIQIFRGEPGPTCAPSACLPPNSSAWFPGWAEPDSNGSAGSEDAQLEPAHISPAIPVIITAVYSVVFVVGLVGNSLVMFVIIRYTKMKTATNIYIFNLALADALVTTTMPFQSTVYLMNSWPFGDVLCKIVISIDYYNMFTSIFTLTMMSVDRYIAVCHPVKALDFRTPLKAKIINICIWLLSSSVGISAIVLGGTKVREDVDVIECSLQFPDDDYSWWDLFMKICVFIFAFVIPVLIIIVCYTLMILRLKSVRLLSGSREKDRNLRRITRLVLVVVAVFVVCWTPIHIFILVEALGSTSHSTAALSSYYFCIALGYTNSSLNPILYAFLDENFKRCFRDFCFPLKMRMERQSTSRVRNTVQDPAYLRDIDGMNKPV

## O=C(Nc1ccc(-c2ccc3ccncc3c2)cc1)C1CCN(S(=O)(=O)c2ccccc2Cl)CC1 [Compound 4f, 1-((2-chlorophenyl)sulfonyl)-N-(4-(isoquinolin-7-yl)phenyl)piperidine-4-carboxamide]
5-HT1A
  inhibition at 10 µM: 4.83 ± 2.43%
5-HT3
  inhibition at 10 µM: -0.28 ± 5.94%
5-HT2A
  inhibition at 10 µM: 17.4 ± 4.69%
Kappa opioid (KOR)
  inhibition at 10 µM: -18.1 ± 2.56%
